± gives the expanded uncertainty stated by the source.
Tests used:
[1] = 298.15 K; 101.33 kPa; Liquid; Vibrating tube method
[2] = molar heat capacity at constant pressure; conditions: 298.15 K; 101.33 kPa; Liquid; Large sample (1 g) DSC
[3] = xn = mol fraction of the nth substance listed; conditions: 298.15 K, 100 kPa, Liquid, Vibrating tube method
[4] = molar heat capacity at constant pressure; xn = mol fraction of the nth substance listed; conditions: 298.15 K, 100 kPa, Liquid, Large sample (1 g) DSC

Compound CCC(O)CO (stereo not drawn) [1,2-butanediol] has a mass density [1] of 998.505 ± 0.068 kg/m3.
With CCCC(O)CO (stereo not drawn) [1,2-pentanediol] the mass density [1] was 966.678 ± 3.2 kg/m3 and the “molar heat capacity at constant pressure” value [2] was 266.29 ± 4.6 J/K/mol.
For CCCC(O)CO (stereo not drawn) [1,2-pentanediol] + CO, the mass density ([3]; x1 = 0.073) was 832.04 ± 0.31 kg/m3, the mass density ([3]; x1 = 0.31) was 886.031 ± 0.67 kg/m3 and the mass density ([3]; x1 = 0.5238) was 929.073 ± 1.2 kg/m3. For the same compound, the mass density ([3]; x1 = 0.6142) was 931.181 ± 1.5 kg/m3, the mass density ([3]; x1 = 0.7047) was 946.883 ± 1.8 kg/m3 and the mass density ([3]; x1 = 0.8127) was 950.977 ± 2.3 kg/m3. For the same compound, the mass density ([3]; x1 = 0.914) was 961.834 ± 2.8 kg/m3, the mass density ([3]; x1 = 1) was 966.678 ± 3.2 kg/m3 and the “molar heat capacity at constant pressure” value ([4]; x1 = 0.073) was 94.77 ± 1.5 J/K/mol. For the same compound, the “molar heat capacity at constant pressure” value ([4]; x1 = 0.1773) was 114.15 ± 1.8 J/K/mol, the “molar heat capacity at constant pressure” value ([4]; x1 = 0.31) was 138.7 ± 2.1 J/K/mol and the “molar heat capacity at constant pressure” value ([4]; x1 = 0.3868) was 152.56 ± 2.4 J/K/mol. For the same compound, the “molar heat capacity at constant pressure” value ([4]; x1 = 0.5238) was 178.04 ± 2.8 J/K/mol, the “molar heat capacity at constant pressure” value ([4]; x1 = 0.6142) was 194.86 ± 3 J/K/mol and the “molar heat capacity at constant pressure” value ([4]; x1 = 0.7047) was 211.81 ± 3.3 J/K/mol. For the same compound, the “molar heat capacity at constant pressure” value ([4]; x1 = 0.8127) was 231.91 ± 3.6 J/K/mol, the “molar heat capacity at constant pressure” value ([4]; x1 = 0.914) was 250.63 ± 3.9 J/K/mol and the “molar heat capacity at constant pressure” value ([4]; x1 = 1) was 266.29 ± 4.1 J/K/mol.
With CC(O)CO (stereo not drawn) [1,2-propanediol] the mass density [1] was 1032.55 ± 0.11 kg/m3 and the “molar heat capacity at constant pressure” value [2] was 191.71 ± 3.2 J/K/mol.
In the case of CC(O)CO (stereo not drawn) [1,2-propanediol] + CO, the “molar heat capacity at constant pressure” value ([4]; x1 = 0.0743) is reported as 89.47 ± 1.4 J/K/mol, the “molar heat capacity at constant pressure” value ([4]; x1 = 0.2305) is reported as 106.48 ± 1.6 J/K/mol and the “molar heat capacity at constant pressure” value ([4]; x1 = 0.3354) is reported as 118.08 ± 1.8 J/K/mol. The “molar heat capacity at constant pressure” value ([4]; x1 = 0.4104) was 126.35 ± 2 J/K/mol, the “molar heat capacity at constant pressure” value ([4]; x1 = 0.51) was 137.4 ± 2.1 J/K/mol and the “molar heat capacity at constant pressure” value ([4]; x1 = 0.6498) was 152.77 ± 2.4 J/K/mol. The “molar heat capacity at constant pressure” value ([4]; x1 = 0.7273) was 161.34 ± 2.5 J/K/mol, the “molar heat capacity at constant pressure” value ([4]; x1 = 0.7821) was 167.69 ± 2.6 J/K/mol and the “molar heat capacity at constant pressure” value ([4]; x1 = 0.8985) was 180.45 ± 2.8 J/K/mol. For the same compound, the “molar heat capacity at constant pressure” value ([4]; x1 = 1) was 191.71 ± 3 J/K/mol.
For CO [methanol], the mass density [1] was 786.585 ± 0.24 kg/m3 and the “molar heat capacity at constant pressure” value [2] was 81.37 ± 1.4 J/K/mol.
For CO [methanol] + CC(O)CO, the “molar heat capacity at constant pressure” value ([4]; x2 = 0) was 81.37 ± 1.3 J/K/mol.
With CO [methanol] + CCCC(O)CO the mass density ([3]; x2 = 0) was 786.585 ± 0.24 kg/m3 and the “molar heat capacity at constant pressure” value ([4]; x2 = 0) was 81.37 ± 1.3 J/K/mol.

Reference: the NIST ThermoML archive (doi:10.1016/j.fluid.2015.05.016)
